Source: paper PMC3989841 (Journal of nuclear medicine : official publication, Society …, 2013)
“And” between values parts separate entries of the source, which are not always exact repeats. Equal entries are not always repeated.

Key:
[1] = renal extraction; cited from earlier work
[2] = normal renal function; cited from earlier work
[3] = Percentage injected dose in urine, voided at 30 and 180 min; details: for Percentage of injected dose in urine: individual patients 1–8; for Percentage of injected dose in urine, mean ± SD: mean ± SD of 8 subjects
Red cell = details: mean ± SD of 8 subjects with chronic kidney disease
Plasma protein binding = details: mean ± SD of 8 subjects with chronic kidney disease
[4] = mean ± SD, subjects with chronic kidney disease
[5] = mean of subjects with reduced renal function

SMILES | Extraction fraction [1] | Normal plasma clearance [2] [mL/min] | Percentage of injected dose in urine ([3]; 30 min after injection) | Percentage of injected dose in urine, mean ± SD ([3]; 30 min after injection) [%] | Percentage of injected dose in urine, mean ± SD ([3]; 180 min (3 h) after injection) | Percentage of injected dose in urine, mean ± SD ([3]; 180 min (3 h) after injection, listed as OIH) [%] | Percentage of injected dose in urine ([3]; 180 min after injection) | RBC (%) (red cell uptake), mean ± SD (Red cell) | RBC (%) (red cell uptake), mean ± SD (Red cell; listed as OIH) | PPB (%), mean ± SD (Plasma protein binding) [%] | Relative uptake in the left kidney [4] | Mean plasma clearance (not normalised to body surface) [5] [mL/min]
O=C([O-])CN(CCN(CC(=O)[O-])CC(=O)[O-])CCN(CC(=O)[O-])CC(=O)[O-].[99Tc+4] [^99mTc-DTPA, ^99mTc-diethyltriaminepentaacetic acid] | approximately 20% | – | – | – | – | – | – | – | – | – | – | –
O=C(O)CNC(=O)c1ccccc1[131I] [^131I-OIH, ^131I-o-iodohippuran] | – | 472 to 530 | 46% and 47% and 24% and 38% and 50% and 42% and 41% and 33% | 40 ± 8 | 78% ± 11% | 78 ± 11 | 81% and 59% and 76% and 98% and 75% and 77% and 79% | 16% ± 2% | 16 ± 2 | 71 ± 5 | 55.5% ± 8.1% | 198
